Experimental findings from paper PMC5761474 (Journal of Pharmaceutical Analysis, 2014) are described below.

The nature of this data set: Pharmacokinetic study of DRV in rats after oral dosing. Type of data set: in vivo, male Wistar rats.
Where [1] appears, read: male, Wistar, rat, plasma, po, 50 mg/kg.
The mark [2] stands for this setting: oral 50 mg/kg, rats, n=6, mean±SD.

For the compound `CC(C)CN(C[C@@H](O)[C@H](Cc1ccccc1)NC(=O)O[C@H]1CO[C@H]2OCC[C@H]21)S(=O)(=O)c1ccc(N)cc1` [DRV, darunavir], under setting [1], the AUC(0-inf) is 1060 ± 49 ng·h/mL, the AUC(0-t) was 1010 ± 48 ng·h/mL, the Cmax was found to be 130 ± 4 ng/mL and the MRT inf worked out at 7.89 ± 0.83 h. Moreover, the Tmax under setting [1] stood at 3 ± 0.28 h. In addition, under setting [2], the “AUMC0−t” value amounted to 6518±386 ng h^2/mL and the “AUMC0−∞” value came to 8408±914 ng h^2/mL.
